Experimental data: patent US20250035641A1, “COMPOSITIONS AND METHODS RELATED TO PROTEIN LABELING” (The Chinese University of Hong Kong, priority 2023, published 2025)
Entries after “also recorded” stand apart in the source; their conditions may differ.

Assays:
Type in all cases: cell-based
HTN-BRD4 = molecular target: T1, HTN-BRD4 (Homo sapiens, UniProt O60885+P62942, F37V); experiment: IP-WB of HTN-BRD4 O-GlcNAcylation (RL2) in HEK293T cells co-expressing fOGT; conditions: for region of induced HTN-BRD4 O-GlcNAcylation: HTN-BRD4:fOGT=1:0.05, truncated/mutant constructs
T1 construct: HaloTag fragment; expressed in transfected cells; host or cells: HEK293T
T1 sequence (P62942 whole entry F37V, stated change not applied, other chains not shown, the tested form may be a part): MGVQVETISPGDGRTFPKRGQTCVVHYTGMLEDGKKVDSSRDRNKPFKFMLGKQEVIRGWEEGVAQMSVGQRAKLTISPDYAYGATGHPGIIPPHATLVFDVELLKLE
Method: We next assess their potency in inducing HTN-BRD4 O-GlcNAcylation in cell. […]
For each IP reaction, 2.2×10^6 HEK293T cells were seed in 10 cm dish. After cells attached, transfection reagents and plasmids were prepared and added in DMEM. After 24 h transfection, media were replaced by fresh warm complete media with DMSO or probes. For washout study, after 4 h treatment, media with DMSO or OGTAC-4 (500 nM) were replaced by fresh media with DMSO or AP1867 (50 μM) for further incubation. After certain time of OGTACs treatment, cells were collected by cold PBS and lysed by 200 μL complete IP lysis buffer. The lysate was incubated on ice for 20 min, spun down at 14,000 RPM at 4° C. for 15 mins, and the supernatant were collected for bicinchoninic acid (BCA) assay and normalized to a final 2 mg/mL. For input, 20 μL of diluted sample was reacted with equal volume of 10 μM TMR ligand in IP lysis buffer and rotate gently at RT for 15 mins. The remaining samples were subjected to protein A/G magnetic beads (MedChemExpress, HY-K0202), which pre-binding with protein target protein antibody. For samples for LC-MS/MS or HTN-BRD4 mutant constructs. Halo-Trap Magnetic Agarose (Proteintech, otma) was used to incubate with protein lysates. After gentle rotation at 4° C. for at least 16 h, the beads were washed with IP lysis buffer and boiled in 40 μL 2×SDS-loading buffer (Biorad #1610747) for 5 mins to elute proteins from beads. Eluted samples were directly subjected into WB analysis.
(§1) In general, cells (from 12 well plate) were lysed by 80 μl RIPA lysis buffer (Thermo Scientic 89901) supplemented with 20 μM OGA inhibitor (Thaimet G, Bidepharm BD571819) and 100X protease inhibitor (MedChemExpress, HY-K0010), incubated on ice for 20 min, spun down at 14,000 RPM at 4° C. for 15 mins, and the supernatant were collected for bicinchoninic acid (BCA) assay and normalizedeto a final 2 mg/mL concentration. About 30 μg of protein samples were loaded for sodium dodecyl sulfatepolyacrylamide gel electrophoresis (SDS-PADE) and blotted with indicated antibodies.

[1] = test system: cellular global O-GlcNAc level; experiment: Global (pan-RL2) O-GlcNAc level by immunoblot
Excerpt: After illustrating the potency and generality of the OGTAC strategy, we then assessed its specificity towards the global O-GlcNAc proteome. We quantified the total pan-O-GlcNAc level (except for the specific band for target POI) using immunoblotting. For well-validated OGT substrates such as CK2α relatively low fOGT protein amount is sufficient to facilitate the inducing effect of our OGTAC-1. […] HTN-BRD4:fOGT=1:0.01 condition is not sufficient for OGTAC to exert inducing effects even though ternary complex was formed (FIG. 15). We hypothesize that an optimal threshold of OGT protein levels is required for efficient O-GlcNAc transfer to BRD4. To address the trade-off between potency and specificity on BRD4, we developed a truncated fOGT system. The tetratricopeptide repeat (TPR) domain of fOGT is responsible for substrate recognition; truncation of TPR domain can reduce its activity towards protein substrates. We therefore constructed and compared several truncated fOGT (tfOGT) plasmids.
as §1

HTN-CK2α = HTN-CK2α (Homo sapiens, UniProt P68400); experiment: Chemoenzymatic labelling and mass-shift assay, HTN-CK2α; parameters: expressed in transfected cells; host or cells: HEK293T (A5, A6); HeLa (A8); conditions: 1 μM
Chain of HTN-CK2α (P68400 with tags, fused parts or gaps): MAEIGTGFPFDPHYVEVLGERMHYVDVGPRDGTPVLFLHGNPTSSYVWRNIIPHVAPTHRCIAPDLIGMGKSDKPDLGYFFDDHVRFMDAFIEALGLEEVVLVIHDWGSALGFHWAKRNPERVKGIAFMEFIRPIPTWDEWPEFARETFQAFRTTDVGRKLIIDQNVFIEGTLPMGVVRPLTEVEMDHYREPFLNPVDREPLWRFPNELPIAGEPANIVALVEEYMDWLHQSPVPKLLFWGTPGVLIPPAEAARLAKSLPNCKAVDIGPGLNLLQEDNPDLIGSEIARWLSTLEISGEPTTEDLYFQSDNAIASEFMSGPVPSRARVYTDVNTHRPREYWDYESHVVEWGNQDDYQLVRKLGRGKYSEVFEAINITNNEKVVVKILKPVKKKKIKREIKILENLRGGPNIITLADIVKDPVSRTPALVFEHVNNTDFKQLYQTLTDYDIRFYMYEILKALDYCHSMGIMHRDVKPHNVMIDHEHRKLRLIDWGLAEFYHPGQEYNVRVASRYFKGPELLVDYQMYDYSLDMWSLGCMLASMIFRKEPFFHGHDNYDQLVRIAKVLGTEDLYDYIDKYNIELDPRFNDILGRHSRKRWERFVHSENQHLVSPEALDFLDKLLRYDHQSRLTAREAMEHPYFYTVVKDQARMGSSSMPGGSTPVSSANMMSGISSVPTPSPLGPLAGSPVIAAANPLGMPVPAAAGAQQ
Chain of HTN-CK2α (P62942+O15294 fused P62942:F37V partner): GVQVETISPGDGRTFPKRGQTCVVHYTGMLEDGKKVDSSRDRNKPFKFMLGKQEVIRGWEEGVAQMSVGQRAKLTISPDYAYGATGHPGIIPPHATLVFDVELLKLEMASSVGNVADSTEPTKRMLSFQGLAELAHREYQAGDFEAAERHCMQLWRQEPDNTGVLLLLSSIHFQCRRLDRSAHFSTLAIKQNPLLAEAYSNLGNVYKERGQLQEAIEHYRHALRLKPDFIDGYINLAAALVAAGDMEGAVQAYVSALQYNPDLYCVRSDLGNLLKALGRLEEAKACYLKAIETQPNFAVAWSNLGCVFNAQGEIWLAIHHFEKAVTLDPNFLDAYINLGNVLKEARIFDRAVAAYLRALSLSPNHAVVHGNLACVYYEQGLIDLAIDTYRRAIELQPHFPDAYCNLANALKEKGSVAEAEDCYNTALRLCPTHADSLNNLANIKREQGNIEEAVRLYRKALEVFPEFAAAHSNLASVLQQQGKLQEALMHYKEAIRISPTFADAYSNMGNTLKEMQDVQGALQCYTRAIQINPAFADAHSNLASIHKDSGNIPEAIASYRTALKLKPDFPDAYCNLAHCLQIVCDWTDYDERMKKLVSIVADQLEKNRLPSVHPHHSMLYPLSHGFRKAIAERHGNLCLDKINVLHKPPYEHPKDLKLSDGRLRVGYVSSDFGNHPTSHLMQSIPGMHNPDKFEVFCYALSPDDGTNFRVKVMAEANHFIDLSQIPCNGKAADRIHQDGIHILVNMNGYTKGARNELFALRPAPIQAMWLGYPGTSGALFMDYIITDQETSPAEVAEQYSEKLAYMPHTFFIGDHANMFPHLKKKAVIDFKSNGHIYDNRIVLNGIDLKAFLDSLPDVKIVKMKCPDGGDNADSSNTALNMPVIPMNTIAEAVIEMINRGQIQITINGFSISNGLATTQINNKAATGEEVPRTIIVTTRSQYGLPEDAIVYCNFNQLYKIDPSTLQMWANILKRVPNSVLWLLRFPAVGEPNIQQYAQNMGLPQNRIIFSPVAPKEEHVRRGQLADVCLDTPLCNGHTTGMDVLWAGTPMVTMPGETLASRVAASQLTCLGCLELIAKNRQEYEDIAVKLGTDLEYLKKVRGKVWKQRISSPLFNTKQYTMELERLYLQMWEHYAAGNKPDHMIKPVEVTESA
Excerpt: Ck2α is a well-studied OGT substrate.^17,25 Its Ser347 is conservatively O-GlcNAcylated and this modification was reported to affect its kinase activity.^16,17 We first co-expressed HTN-Ck2α and fOGT in HEK293T cells at different ratio and found the basal O-GlcNAcylation level of HTN-Ck2α was higher than what we detected in the case of HTN-BRD4. Therefore, a lower ratio of fOGT expression (1:100) was selected for the assessment of OGTAC potency (FIG. 9). […] The induction of specific O-GlcNAcylation on HTN-Ck2α was further confirmed by mass-shift assay. […] To validate the direct binding to both fOGT and HTN-Ck2α is critical, we exploited AP 1867 and rhodamine ligand, which bind to fOGT and HTN-Ck2α respectively, to co-treat with OGTAC-1.
For each chemoenzymatic labelling reaction. 2×10^5 HEK293T cells were seed to each well of 6 well plate. After cells attached, transfection reagents and plasmids were prepared and added in DMEM. After 24 h transfection, media were replaced by fresh warm complete media with DMSO or probes. […] The supernatant of lysate was then quantified by bicinchoninic acid (BCA) assay and normalized to 2 mg/mL with 1% SDS in buffer. […]

SMILES	efficacy as O-GlcNAcylation inducer (HTN-BRD4)	fold increase of RL2 signal of BRD4 (HTN-BRD4; 640 nM, 2 h)	fold increase of RL2 signal of BRD4 (HTN-BRD4; 640 nM, 4 h)	HTN-BRD4 O-GlcNAcylation inducing potency (HTN-BRD4; 5 μM, 4 h)	concentration from which inducing effect declined (hook effect) (HTN-BRD4; 4 h)	region of induced HTN-BRD4 O-GlcNAcylation (HTN-BRD4)	cellular global O-GlcNAc level ([1]; 125 nM, HTN-CK2α:fOGT=1:0.01)	pan-RL2 level ([1]; HTN-BRD4:fOGT system, dose-response, 4 h)	HTN-CK2α O-GlcNAcylation in mass-shift assay (HTN-CK2α)	time at which O-GlcNAcylation of HTN-BRD4 was induced (HTN-BRD4; 640 nM)	time of peak induction of HTN-BRD4 O-GlcNAcylation (HTN-BRD4; 640 nM, longest time point)	lowest concentration promoting BRD4 O-GlcNAcylation and ternary complex (HTN-BRD4; 4 h, 3 nM conducted once)	O-GlcNAcylation inducing effect on HTN-BRD4 (HTN-BRD4; HTN-BRD4:fOGT=1:0.01 system)	global O-GlcNAc level ([1]; 0tfOGT:HTN-BRD4 system)	global O-GlcNAc levels during reversibility study ([1]; HTN-BRD4:0tfOGT, washout study)
CC[C@H](C(=O)N1CCCC[C@H]1C(=O)O[C@H](CCc1ccc(OC)c(OC)c1)c1cccc(OCC(=O)NCCOCCOCCCCCCCl)c1)c1cc(OC)c(OC)c(OC)c1 [OGTAC-1, (R)-1-(3-(2-((2-(2-((6-chlorohexyl)oxy)ethoxy)ethyl)amino)-2-oxoethoxy)phenyl)-3-(3,4-dimethoxyphenyl)propyl (S)-1-((S)-2-(3,4,5-trimethoxyphenyl)butanoyl) piperidine-2-carboxylate]	submicromolar efficacy	2.5 fold	around 2.8 fold	best O-GlcNAcylation inducing potency among three OGTACs; also recorded: outstanding potency	1.6 µM	C-terminal region (S1367-F1224)	not significantly changed	not affected	increased HTN-CK2α O-GlcNAcylation						
CC[C@H](C(=O)N1CCCC[C@H]1C(=O)O[C@H](CCc1ccc(OC)c(OC)c1)c1cccc(OCC(=O)NCCCCCCNC(=O)C[C@@H]2N=C(c3ccc(Cl)cc3)c3c(sc(C)c3C)-n3c(C)nnc32)c1)c1cc(OC)c(OC)c(OC)c1 [OGTAC-4, (R)-1-(3-(2-((6-(2-((S)-4-(4-chlorophenyl)-2,3,9-trimethyl-6H-thieno[3,2-f[]8 1,2,4]triazolo[4,3-a][1,4]diazepin-6-yl)acetamido)hexyl)amino)-2-oxoethoxy)phenyl)-3-(3,4-dimethoxyphenyl)propyl (S)-1-((S)-2-(3,4,5-trimethoxyphenyl)butanoyl)piperidine-2-carboxylate]	submicromolar efficacy					C-terminal region (S1367-F1224)				≤ 2 h	24 h	3 nM	No O-GlcNAcylation inducing effect	without disruption of global O-GlcNAc level	remained unchanged
